Reference: patent US10874743B2, “IRAK degraders and uses thereof” (Kymera Therapeutics, Inc., priority 2017, dated 2020)

What was measured:
[1] = biological target: T1, IRAK4 (Homo sapiens, UniProt Q9NWZ3); test: OCI-LY-10 MSD assay for IRAK4 DC50; assay type: cell-based; parameters: endogenous in cells; host or cells: OCI-LY10; conditions: OCI-LY10 cells, 4 hr incubation, concentration required to degrade 50% of protein
T1 sequence (Q9NWZ3 1-460): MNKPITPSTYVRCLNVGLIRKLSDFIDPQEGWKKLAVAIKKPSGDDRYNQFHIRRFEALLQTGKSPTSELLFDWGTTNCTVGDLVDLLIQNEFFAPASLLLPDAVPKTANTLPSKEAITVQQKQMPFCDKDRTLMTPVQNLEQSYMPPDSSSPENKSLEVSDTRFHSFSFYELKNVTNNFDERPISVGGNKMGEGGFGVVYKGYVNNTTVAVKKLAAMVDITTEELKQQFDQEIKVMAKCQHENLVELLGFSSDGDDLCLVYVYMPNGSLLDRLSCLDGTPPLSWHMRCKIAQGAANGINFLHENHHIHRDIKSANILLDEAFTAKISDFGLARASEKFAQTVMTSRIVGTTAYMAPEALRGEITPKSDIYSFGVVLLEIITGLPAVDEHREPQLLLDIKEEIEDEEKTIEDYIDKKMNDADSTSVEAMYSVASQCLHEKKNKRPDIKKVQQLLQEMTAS
Procedure, shortened: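 IRAK4 level was quantified by MSD electrochemiluminescence (anti-IRAK4 capture antibody, rabbit anti-IRAK4 detection antibody) in RIPA lysates of OCI-Ly10 cells. Cells had been treated with compound for 4 hr (8-point, 3-fold serial dilution). Remaining protein versus concentration was fitted to a sigmoidal curve to give DC50.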

[2] = tested on: OCI-LY10 cells; test: OCI-LY-10 CTG cell viability assay (EC50); assay type: cell-based; conditions: Homo sapiens, 96 h, CellTiter-Glo cell viability, 4 days incubation, top concentration 10 μM, read-out: OCI-LY10 IRAK4 EC50
Procedure, shortened: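 OCI-LY10 cells were exposed to a 9-dose, 1:3 series (top 10 μM, 0.2% DMSO) for 4 days at 37 °C. Viability was measured by CellTiter-Glo luminescence, and EC50 came from a three-parameter logistic fit.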

SMILES	DC50 [1] [nM]	EC50 [2] [nM]
CN(CCCCOCCCCc1ccc2c(c1)n(C)c(=O)n2C1CCC(=O)NC1=O)C(=O)c1ccc(-n2cc(NC(=O)c3coc(-c4ccnc(NCC(F)(F)F)c4)n3)c(C(N)=O)n2)cc1 (stereo not drawn) [I-489]	< 50	500 to 1000
CN(CCCOCCCc1cccc2c1oc(=O)n2C1CCC(=O)NC1=O)C(=O)c1ccc(-n2cc(NC(=O)c3coc(-c4ccnc(NCC(F)(F)F)c4)n3)c(C(N)=O)n2)cc1 (stereo not drawn) [I-495]	< 50	500 to 1000
Cn1c(=O)n(C2CCC(=O)NC2=O)c2cccc(CCCN3CCO[C@H](CNCc4ccc(-n5cc(NC(=O)c6coc(-c7ccnc(NCC(F)(F)F)c7)n6)c(C(N)=O)n5)cc4)C3)c21 (stereo partly drawn) [I-593]	< 50	100 to 500
Cn1c(=O)n(C2CCC(=O)NC2=O)c2ccc(CCCOCCCNC(=O)c3ccc(-n4cc(NC(=O)c5coc(-c6ccnc(NCC7CC7)c6)n5)c(C(F)F)n4)cc3)cc21 (stereo not drawn) [I-459]	< 50	< 50
O=C1CCC(n2c(=O)oc3c(CCCN4CCO[C@H](CNCc5ccc(-n6cc(NC(=O)c7coc(-c8ccnc(NCC9CC9)c8)n7)c(C(F)F)n6)cc5)C4)cccc32)C(=O)N1 (stereo partly drawn) [I-590]	< 50	< 50
Cn1c(=O)n(C2CCC(=O)NC2=O)c2ccc(CCCOCCOCCNCc3ccc(-n4cc(NC(=O)c5coc(-c6ccnc(NCC7CC7)c6)n5)c(C(F)F)n4)cc3F)cc21 (stereo not drawn) [I-539]	500 to 1000	< 50
Cn1ncc2nc(Nc3cnn(CCOCCOCCNc4cccc5c4C(=O)N(C4CCC(=O)NC4=O)C5=O)c3)nc(NC3CCC(N4CCOCC4)CC3)c21 (stereo not drawn) [I-692]	> 1000	> 1000
Cn1cc(NC(=O)c2coc(-c3ccnc(NCC(F)(F)F)c3)n2)c(CNCCOCCOCCOCCOCCOCCNc2cccc3c2C(=O)N(C2CCC(=O)NC2=O)C3=O)n1 (stereo not drawn) [I-522]	> 1000	> 1000
CN(CCCCOCCCCc1ccc2c(c1)n(C)c(=O)n2C1CCC(=O)NC1=O)C(=O)c1ccc(-n2cc(NC(=O)c3coc(-c4ccnc(NCC5CC5)c4)n3)c(C(F)F)n2)cc1 (stereo not drawn) [I-491]	50 to 100	< 50
CN[C@@H](C)C(=O)N[C@H](C(=O)N1Cc2cc(OCCOCCOCCOCCNC(=O)c3ccc(-n4cc(NC(=O)c5coc(-c6ccnc(NCC7CC7)c6)n5)c(C(F)F)n4)cc3)ccc2C[C@H]1C(=O)N[C@@H]1CCCc2ccccc21)C(C)(C)C [I-521]	> 1000	> 1000
Cn1c(=O)n(C2CCC(=O)NC2=O)c2cccc(CCCN3CCO[C@H](CNCc4ccc(-n5cc(NC(=O)c6coc(-c7ccnc(NCC8CC8)c7)n6)c(C(F)F)n5)cc4)C3)c21 (stereo partly drawn) [I-587]	< 50	< 50
CN(CC1CCN(CCC#Cc2ccc3c(c2)n(C)c(=O)n3C2CCC(=O)NC2=O)CC1)C(=O)c1ccc(-n2cc(NC(=O)c3coc(-c4ccnc(NCC5CC5)c4)n3)c(C(F)F)n2)cc1 (stereo not drawn) [I-504]	< 50	< 50
CN[C@@H](C)C(=O)N[C@H](C(=O)N1Cc2cc(OCCOCCOCCOCCOCCNC(=O)c3ccc(-n4cc(NC(=O)c5coc(-c6ccnc(NCC7CC7)c6)n5)c(C(F)F)n4)cc3)ccc2C[C@H]1C(=O)N[C@@H]1CCCc2ccccc21)C(C)(C)C [I-519, 2-[2-(Cyclopropylmethylamino)-4-pyridyl]-N-[3-(difluoromethyl)-1-[4-[2-[2-[2-[2-[2-[[(3S)-2-[(2S)-3,3-dimethyl-2-[[(2S)-2-(methylamino)propanoyl]amino]butanoyl]-3-[[(1R)-tetralin-1-yl]carbamoyl]-3,4-dihydro-1H-isoquinolin-7-yl]oxy]ethoxy]ethoxy]ethoxy]ethoxy]ethylcarbamoyl]phenyl]pyrazol-4-yl]oxazole-4-carboxamide]	500 to 1000	500 to 1000
O=C1CCC(N2Cc3cc(CNC(=O)NCCOCCOCCNCc4ccc(-n5cc(NC(=O)c6coc(-c7ccnc(NCC8CC8)c7)n6)c(C(F)F)n5)cc4)ccc3C2=O)C(=O)N1 (stereo not drawn) [I-529]	50 to 100	50 to 100

More lines, now with the values ahead:

DC50 [1] [nM]	EC50 [2] [nM]	SMILES
50 to 100	< 50	Cn1c(=O)n(C2CCC(=O)NC2=O)c2cccc(CCCCOCCCCNCc3ccc(-n4cc(NC(=O)c5coc(-c6ccnc(NCC7CC7)c6)n5)c(C(F)F)n4)cc3)c21 (stereo not drawn) [I-523]
< 50	< 50	Cn1c(=O)n(C2CCC(=O)NC2=O)c2ccc(CNC(=O)OCCCNCc3ccc(-n4cc(NC(=O)c5coc(-c6ccnc(NCC7CC7)c6)n5)c(C(F)F)n4)cc3)cc21 (stereo not drawn) [I-545]
< 50	< 50	O=C1CCC(n2c(=O)oc3c(CCCOCCCNC(=O)c4ccc(-n5cc(NC(=O)c6coc(-c7ccnc(NCC8CC8)c7)n6)c(C(F)F)n5)cc4)cccc32)C(=O)N1 (stereo not drawn) [I-475]
< 50	> 1000	Cn1c(=O)n(C2CCC(=O)NC2=O)c2cccc(CCCOCCCNCc3ccc(-n4cc(NC(=O)c5coc(-c6ccnc(NCC(F)(F)F)c6)n5)c(C(F)F)n4)cc3)c21 (stereo not drawn) [I-535]
< 50	< 50	O=C1CCC(N2Cc3cc(CNC(=O)OCCNCc4ccc(-n5cc(NC(=O)c6coc(-c7ccnc(NCC8CC8)c7)n6)c(C(F)F)n5)cc4)ccc3C2=O)C(=O)N1 (stereo not drawn) [I-558]
< 50	< 50	Cn1c(=O)n(C2CCC(=O)NC2=O)c2cccc(CCCN3CCO[C@@H](CNCc4ccc(-n5cc(NC(=O)c6coc(-c7ccnc(NCC8CC8)c7)n6)c(C(F)F)n5)cc4)C3)c21 (stereo partly drawn) [I-588]
> 1000	> 1000	CN[C@@H](C)C(=O)N[C@H](C(=O)N1Cc2cc(OCCOCCOCCOCCOCCNCc3nn(C)cc3NC(=O)c3coc(-c4ccnc(NCC(F)(F)F)c4)n3)ccc2C[C@H]1C(=O)N[C@@H]1CCCc2ccccc21)C(C)(C)C [I-682]
< 50	< 50	Cn1c(=O)n(C2CCC(=O)NC2=O)c2ccc(CNCCOCCNCc3ccc(-n4cc(NC(=O)c5coc(-c6ccnc(NCC7CC7)c6)n5)c(C(F)F)n4)cc3)cc21 (stereo not drawn) [I-684, 2-[2-(cyclopropylmethylamino)-4-pyridyl]-N-[3-(difluoromethyl)-1-[4-[[2-[2-[[1-(2,6-dioxo-3-piperidyl)-3-methyl-2-oxo-benzimidazol-5-yl]methylamino]ethoxy]ethylamino]methyl]phenyl]pyrazol-4-yl]oxazole-4-carboxamide]
< 50	50 to 100	O=C1CCC(N2C[C@H](c3cccc(C#CCN4CCO[C@@H](CNC(=O)c5ccc(-n6cc(NC(=O)c7coc(-c8ccnc(NCC9CC9)c8)n7)c(C(F)F)n6)cc5)C4)c3)OC2=O)C(=O)N1 (stereo partly drawn) [I-508]
< 50	< 50	Cn1c(=O)n(C2CCC(=O)NC2=O)c2ccc(CN3CCN(CCO[C@H]4C[C@H](NCc5ccc(-n6cc(NC(=O)c7coc(-c8ccnc(NCC9CC9)c8)n7)c(C(F)F)n6)cc5)C4)CC3)cc21 (stereo partly drawn) [I-583]
< 50	< 50	O=C1CCC(N2C[C@H](c3ccc(C#CCN4CCO[C@@H](CNCc5ccc(-n6cc(NC(=O)c7coc(-c8ccnc(NCC9CC9)c8)n7)c(C(F)F)n6)cc5)C4)cc3)OC2=O)C(=O)N1 (stereo partly drawn) [I-585]
< 50	< 50	O=C1CCC(n2c(=O)oc3cc(CCCOCCOCCNCc4ccc(-n5cc(NC(=O)c6coc(-c7ccnc(NCC8CC8)c7)n6)c(C(F)F)n5)cc4)ccc32)C(=O)N1 (stereo not drawn) [I-550]
< 50	50 to 100	Cn1c(=O)n([C@@H]2CCC(=O)NC2=O)c2ccc(CCCCOCCCCNCc3ccc(-n4cc(NC(=O)c5coc(-c6ccnc(NCC7CC7)c6)n5)c(C(F)F)n4)cc3)cc21 (single isomer, unassigned) [I-700]
< 50	> 1000	Cn1c(=O)n(C2CCC(=O)NC2=O)c2ccc(CCCOCCOC3CCN(C(=O)c4ccc(-n5cc(NC(=O)c6coc(-c7ccnc(NCC8CC8)c7)n6)c(C(F)F)n5)cc4)CC3)cc21 (stereo not drawn) [I-517]
< 50	< 50	Cn1c(=O)n(C2CCC(=O)NC2=O)c2ccc(CNCCCCCNCc3ccc(-n4cc(NC(=O)c5coc(-c6ccnc(NCC7CC7)c6)n5)c(C(F)F)n4)cc3)cc21 (stereo not drawn) [I-542]
< 50	100 to 500	Cn1c(=O)n(C2CCC(=O)NC2=O)c2ccc(CCCN3CCO[C@H](CNCc4ccc(-n5cc(NC(=O)c6coc(-c7ccnc(NCC(F)(F)F)c7)n6)c(C(N)=O)n5)cc4)C3)cc21 (stereo partly drawn) [I-572]
< 50	< 50	O=C1CCC(n2c(=O)oc3c(CCCN4CCO[C@@H](CNCc5ccc(-n6cc(NC(=O)c7coc(-c8ccnc(NCC9CC9)c8)n7)c(C(F)F)n6)cc5)C4)cccc32)C(=O)N1 (stereo partly drawn) [I-589]
< 50	< 50	Cn1c(=O)n(C2CCC(=O)NC2=O)c2cccc(CCCOCCCNC(=O)c3ccc(-n4cc(NC(=O)c5coc(-c6ccnc(NCC7CC7)c6)n5)c(C(F)F)n4)cc3)c21 (stereo not drawn) [I-460]
< 50	100 to 500	CN(CCCOCCCc1cccc2c1oc(=O)n2C1CCC(=O)NC1=O)C(=O)c1ccc(-n2cc(NC(=O)c3coc(-c4ccnc(NCC5CC5)c4)n3)c(C(F)F)n2)cc1 (stereo not drawn) [I-476]
